Series [1] in a line: Stability of GBP in presence of different stabilizers and solvents. The class given is physicochemical. To be noted: GBP 9 mg/mL in acetate buffer, PVP 10 mg/mL. Here is the method:
GBP containing formulations were prepared by dissolving GBP to a concentration of 9 mg/mL in acetate buffer. A first set of samples were tested for assay and impurities after the initial preparation of formulation, Another set of samples were steam sterilized at 121° C. for 15 min and were tested for assay and impurity levels.

For series [2], the system named is mouse whole blood (male), red blood cells. Briefly: In vitro hemolysis test, mouse blood. The conditions noted are these: mouse whole unclotted blood, concentrations tested, 15 min at 37° C. Here is the method:
(§1) APAP and GBP alone or in combination were evaluated in the in vitro hemolysis test using four biologic matrices (mouse, rat, dog and human whole unclotted blood) to determine the hemolytic potential for each on red blood cells.

The subject of series [3] is rat whole blood (male), red blood cells. The series can be described thus: In vitro hemolysis test, rat blood. The conditions noted are these: rat whole unclotted blood, concentrations tested, 15 min at 37° C. Here is the method:
as §1

Series [4] relates to beagle dog whole blood (male), red blood cells. The series can be described thus: In vitro hemolysis test, dog blood. The conditions noted are these: dog whole unclotted blood, concentrations tested, 15 min at 37° C. The procedure:
as §1

Series [5] relates to human (pooled) whole blood, red blood cells. The series can be described thus: In vitro hemolysis test, human blood. To be noted: human whole unclotted blood, concentrations tested, 15 min at 37° C. Here is the method:
as §1

The subject of the next series is Male ICR mice. Briefly: Mouse RotoRod/Acelerorod test. To be noted: 15 minute IV infusion, 10 mg Acetaminophen/mL, 8 mg Gabapentin/mL, 1, 2, 4, 6 h. The procedure: Mouse tail flick test was conducted to evaluate test somatic pain and mouse rotorod/acelorod test evaluated behavioral changes, specifically somnolence or dizziness
In each case a positive control was administered as described below.
Male ICR mice were trained on a RotoRod/Acelerod at a continuous accelerating speed from 4 to 30 rpm/min during a time period of 4 minutes for at least 3 times on day 0. Vehicle or test article at a single dose is administered by intravenous infusion over 15 minutes starting 30 minutes before the test period starts and chlorpromazine (30 mg/kg, PO) was administered by oral gavage 60 minutes before the start of the test period. At 1, 2, 4, and 6 hours after the start of the test the mice are placed on the accelerating rotorod (increasing from 4 to 30 rpm/min during a 4 min period) and the time (seconds) the mouse remained on the rotorod was recorded. One-way ANOVA followed by Dunnett's test is applied for comparison between vehicle control and test article groups. P<0.05 is considered significant.
A baseline was measured before administration of the test agents and at 1, 2, 4 and 6 h post the start of the study. The effect of the compounds was evaluated in the standard RotoRod/Acelerorod test.
For orientation: The rotarod test checks motor coordination on a turning rod.

The conditions of series [6]: oral; cited from earlier work.
Another series concerns Male rats. The series can be described thus: Toxicologic profile in rats (clinical pathology, necropsy, histopathology). The conditions noted are these: 24 h after 15 minute IV infusion, infusion site, lung, liver, kidney.
The conditions of series [7]: Koshy et al; cited from earlier work.

Results on two compounds are retold here after US10874626B2, “Formulation for use in a method of treatment of pain” (NEVAKAR Inc., priority 2016, dated 2020).

Consider “1-(aminomethyl) cyclohexane acetic acid [Gabapentin]”, for which the “stability of GBP with stabilizer” value in series [1] is “more stable”. Moreover, the Interpretation of hemolysis entry in series [2], in series [3], in series [4] and in series [5] was “not considered to be hemolytic” throughout. The “motor control (time on rotorod) compared to the vehicle control” value with Male ICR mice was “no statistically significant decrease in motor control”. Besides, the “Plasma concentrations versus dose” value in series [6] was “proportional with dose up to 1800 mg daily and then plateau at approximately 3600 mg daily”. The “histopathology compared to the vehicle control” value with Male rats is “no changes in the histopathology in any tissue sampled”.
Take `CC(=O)Nc1ccc(O)cc1` [Acetaminophen, acetaminophen]: the Interpretation of hemolysis result in series [2], in series [3], in series [4] and in [5] was “not considered to be hemolytic” in each case. For the same compound, the “motor control (time on rotorod) compared to the vehicle control” value with Male ICR mice was “no statistically significant decrease in motor control”. In series [7], the “pH range in which hydrolysis of APAP is minimum” value was 5-7.
